≈ marks a conversion by molar mass, not a printed value.
Key:
P. aeruginosa PAO1 = assay: Fixed-concentration (0.25× MIC bolalipid) synergy broth microdilution; assay type: cell-based, Pseudomonas aeruginosa; details: P. aeruginosa PAO1
P. aeruginosa NCTC 13437 = assay: as above; assay type: cell-based, Pseudomonas aeruginosa; details: P. aeruginosa NCTC 13437
C. albicans 3179 = assay: Broth microdilution MIC; assay type: cell-based, Candida albicans; details: Candida albicans, 3179
C. albicans 3281 = assay: Broth microdilution MIC; assay type: cell-based, Candida albicans; details: Candida albicans, 3281
C. auris temp probe = assay: Broth microdilution MIC; assay type: cell-based, Candida auris; details: Candidozyma auris
C. glabrata 8018 = assay: Broth microdilution MIC; assay type: cell-based; details: Nakaseomyces glabratus, 8018
C. tropicalis 8760 = assay: Broth microdilution MIC; assay type: cell-based; details: Candida tropicalis, 8760
C. krusei 3876 = assay: Broth microdilution MIC; assay type: cell-based; details: Pichia kudriavzevii, read-out: MIC
C. parapsilosis 3209 = assay: Broth microdilution MIC; assay type: cell-based; details: Lodderomyces parapsilosis, read-out: MIC
C. parapsilosis = assay: Broth microdilution MIC; assay type: cell-based; details: Lodderomyces parapsilosis, read-out: MIC
M. tuberculosis Bleupan = assay type: in vivo, Galleria mellonella; details: in vivo
[1] = in the presence of 0.25× MIC Octa-bola (Table S1)
[2] = in the presence of 0.25× MIC Octa-C10 (Table S1)

Which results are given for `CC1(C)S[C@@H]2[C@H](NC(=O)[C@H](N)c3ccccc3)C(=O)N2[C@H]1C(=O)O` [Ampicillin]?
MIC of antibiotic (P. aeruginosa PAO1; No bola (Table S1)): > 512 µg/mL; MIC of antibiotic (P. aeruginosa PAO1; [1]): > 512 µg/mL; MIC of antibiotic (P. aeruginosa NCTC 13437; No bola (Table S1)): > 512 µg/mL; MIC of antibiotic (P. aeruginosa NCTC 13437; [2]): > 512 µg/mL; MIC of antibiotic (P. aeruginosa NCTC 13437; [1]): > 512 µg/mL

What does the source list for `CC(C)(O/N=C(\C(=O)N[C@@H]1C(=O)N2C(C(=O)[O-])=C(C[n+]3ccccc3)CS[C@H]12)c1csc(N)n1)C(=O)O` [Ceftazidime]?
MIC of antibiotic (P. aeruginosa PAO1; No bola (Table S1)): 2 µg/mL; MIC of antibiotic (P. aeruginosa PAO1; [1]): 2 µg/mL; MIC of antibiotic (P. aeruginosa NCTC 13437; No bola (Table S1)): > 128 µg/mL; MIC of antibiotic (P. aeruginosa NCTC 13437; [2]): > 128 µg/mL; MIC of antibiotic (P. aeruginosa NCTC 13437; [1]): > 128 µg/mL

What does the source list for `O=C(O)c1cn(C2CC2)c2cc(N3CCNCC3)c(F)cc2c1=O` [Ciprofloxacin]?
MIC of antibiotic (P. aeruginosa PAO1; No bola (Table S1)): 0.125 µg/mL; MIC of antibiotic (P. aeruginosa PAO1; [2]): 1 µg/mL; MIC of antibiotic (P. aeruginosa PAO1; [1]): 1 µg/mL; MIC of antibiotic (P. aeruginosa NCTC 13437; No bola (Table S1)): 32 µg/mL; MIC of antibiotic (P. aeruginosa NCTC 13437; [2]): > 64 µg/mL; MIC of antibiotic (P. aeruginosa NCTC 13437; [1]): > 64 µg/mL

For `C[C@H]1c2cccc(O)c2C(=O)C2=C(O)[C@]3(O)C(=O)C(C(N)=O)=C(O)[C@@H](N(C)C)[C@@H]3[C@@H](O)[C@@H]21` [Doxycyline], which MIC of antibiotic (P. aeruginosa PAO1; No bola (Table S1)) is on record?
The MIC of antibiotic was 32 µg/mL.

What about the MIC of antibiotic (P. aeruginosa PAO1; [2]) of the same compound?
The MIC of antibiotic was 64 µg/mL.

What about the MIC of antibiotic (P. aeruginosa PAO1; [1]) of the same compound?
The MIC of antibiotic was 128 µg/mL.

What about the MIC of antibiotic (P. aeruginosa NCTC 13437; No bola (Table S1)) of the same compound?
The MIC of antibiotic was > 256 µg/mL.

And the MIC of antibiotic (P. aeruginosa NCTC 13437; [2])?
The MIC of antibiotic was > 256 µg/mL.

And the MIC of antibiotic (P. aeruginosa NCTC 13437; [1])?
Its MIC of antibiotic is > 256 µg/mL.

With `OC(Cn1cncn1)(Cn1cncn1)c1ccc(F)cc1F` [Fluconazole, reference compound] as the compound, how does the MIC (C. albicans 3179) read?
The MIC was > 128 µg/mL.

What about the MIC (C. albicans 3281) of the same compound?
The MIC was > 128 µg/mL.

What about the MIC (C. auris temp probe) of the same compound?
The MIC was > 128 µg/mL.

And the MIC (C. glabrata 8018)?
Its MIC is > 128 µg/mL.

What about the MIC (C. tropicalis 8760) of the same compound?
The MIC was > 128 µg/mL.

And the MIC (C. krusei 3876)?
The MIC was 32 µg/mL (≈ 104 µM).

And the MIC (C. parapsilosis 3209)?
The MIC was 0.25 µg/mL (≈ 0.816 µM).

What about the MIC (C. parapsilosis) of the same compound?
The MIC was 0.5 µg/mL (≈ 1.63 µM).

With `C[C@@H](O)[C@H]1C(=O)N2C(C(=O)O)=C(S[C@@H]3CN[C@H](C(=O)N(C)C)C3)[C@H](C)[C@H]12` [Meropenem] as the compound, how does the MIC of antibiotic (P. aeruginosa PAO1; No bola (Table S1)) read?
The MIC of antibiotic was > 2 µg/mL.

And the MIC of antibiotic (P. aeruginosa PAO1; [1])?
Its MIC of antibiotic is > 2 µg/mL.

And the MIC of antibiotic (P. aeruginosa NCTC 13437; No bola (Table S1))?
Its MIC of antibiotic is > 32 µg/mL.

What about the MIC of antibiotic (P. aeruginosa NCTC 13437; [2]) of the same compound?
Its MIC of antibiotic is > 32 µg/mL.

And the MIC of antibiotic (P. aeruginosa NCTC 13437; [1])?
The MIC of antibiotic was > 32 µg/mL.

`CO[C@H]1/C=C/O[C@@]2(C)Oc3c(C)c(O)c4c(O)c(c(/C=N/N5CCN(C)CC5)c(O)c4c3C2=O)NC(=O)/C(C)=C\C=C\[C@H](C)[C@H](O)[C@@H](C)[C@@H](O)[C@@H](C)[C@H](OC(C)=O)[C@@H]1C` [Rifampin] was tested. Which MIC of antibiotic (P. aeruginosa PAO1; No bola (Table S1)) did it give?
The MIC of antibiotic was 16 µg/mL.

What about the MIC of antibiotic (P. aeruginosa PAO1; [2]) of the same compound?
Its MIC of antibiotic is 8 to 16 µg/mL.

What about the MIC of antibiotic (P. aeruginosa PAO1; [1]) of the same compound?
Its MIC of antibiotic is 16 µg/mL.

And the MIC of antibiotic (P. aeruginosa NCTC 13437; No bola (Table S1))?
The MIC of antibiotic was 16 µg/mL.

And the MIC of antibiotic (P. aeruginosa NCTC 13437; [2])?
The MIC of antibiotic was 8 µg/mL.

What about the MIC of antibiotic (P. aeruginosa NCTC 13437; [1]) of the same compound?
The MIC of antibiotic was 16 µg/mL.

And the larvae rescued (M. tuberculosis Bleupan)?
Its larvae rescued is “All G. mellonella larvae were rescued”.
